Key:
[1] = system: C. albicans (NCTC 3179) biofilm; test: Crystal violet assay, C. albicans monospecies biofilm; type: cell-based, Candida albicans; conditions: peptoid 100 μM, 24 h treatment of 4 h biofilm; n=3
Protocol: (§1) Microorganism strains and growth conditions: C. albicans (NCTC 3179) was subcultured aerobically on Sabouraud agar plates, prepared by using Sabouraud dextrose powder and agar (Oxoid, ThermoFisher) and propagated in yeast peptone dextrose broth. E. coli (ATCC 29522) and S. aureus (NCTC 6571) were grown on blood agar plates (Fanin, Dublin, Ireland) and propagated in brain heart infusion (BHI) broth (Oxoid, ThermoFisher).
(§2) Preparation and treatment of single‐species biofilms: Overnight cultures of C. albicans were washed and resuspended (1.0×10^6 cells per mL) in RPMI‐1640 (Sigma–Aldrich). Overnight cultures of S. aureus or E. coli were washed and resuspended (5.0×10^6 cells per mL) in BHI broth. Samples (100 μL) were added to microtitre plate wells (Thermo Fisher Scientific), and a biofilm was allowed to form for 4 h. Wells were washed with PBS (3×200 μL) to facilitate removal of planktonic cells, and the biofilms were then treated with 1–18 (100 μM in the appropriate medium). Plates were incubated for a further 24 h to allow biofilm maturation. After removal of planktonic cells by washing, biofilms were quantified by the crystal violet assay or by PMA‐qPCR.
(§3) Biofilm quantification by crystal violet assay: Washed biofilms were fixed with methanol (100 μL) for 10 min. Following removal of methanol, the wells were air dried and stained with crystal violet solution (Clin‐Tech, Guildford, UK) for 20 min at room temperature. Excess stain was removed by washing, then the plate was air‐dried and bound crystal violet was re‐solubilised in acetic acid (33 %, 160 μL) prior to reading at 570 nm in a GENios microtitre plate reader (Tecan, Zürich, Switzerland).

[2] = system: S. aureus monospecies biofilm; test: PMA-qPCR viable cell number, S. aureus monospecies biofilm; type: cell-based, Staphylococcus aureus; conditions: peptoid 100 μM, 24 h; n=3
Protocol: as §2
(§4) Biofilm quantification by PMA‐modified qPCR: In order to determine the bactericidal and fungicidal activity of peptoids against single‐species and polymicrobial biofilms, the biofilms were detached from the microtitre plate wells prior to quantification. The wells were washed as above, then BHI broth (100 μL) was added and the plate was sealed. […]
(§5) Generation of standard curves for PMA‐qPCR: For quantification of C. albicans, S. aureus and E. coli in single‐species and polymicrobial biofilms, DNA standards were prepared by extraction of DNA from planktonic organisms with the microLYSIS‐Plus kit and purification with a DNeasy kit (Qiagen). […]

[3] = system: C. albicans in polymicrobial biofilm with E. coli; test: PMA-qPCR, C. albicans within C. albicans-E. coli polymicrobial biofilm; type: cell-based, Candida albicans
Protocol: (§6) Preparation and treatment of polymicrobial biofilms: Overnight cultures of C. albicans were prepared in microtitre plates as above, and allowed to adhere for 4 h to facilitate initial biofilm formation. Planktonic C. albicans cells were removed as above before the addition of S. aureus or E. coli (100 μL, 5.0×10^6 cells per mL). Bacteria were allowed to adhere to the C. albicans biofilms for 4 h to facilitate polymicrobial biofilm formation. Following a washing step, the biofilms were then treated with peptoid (10–100 μM), and incubated for a further 24 h to allow biofilm maturation. Wells were washed as above, and the polymicrobial biofilms were quantified by PMA‐modified qPCR.
as §4, §5

HepG2 = test: alamarBlue cytotoxicity assay, HepG2 cells
Protocol: (§8) Peptoid cytotoxicity studies: All 18 peptoids were tested for cytotoxicity against HepG2 epithelial (Sigma–Aldrich) and HaCaT keratinocyte (ThermoFisher) cell lines, Cytotoxicity analyses were performed in Costar 96‐well plates (Thermo Fisher Scientific) with alamarBlue (Invitrogen/Thermo Fisher Scientific) for cell viability detection as described by the manufacturer. HepG2 and HaCaT cells were grown at 37 °C under CO2 (5 %) in DMEM (high glucose) supplemented with heat‐inactivated foetal bovine sera (FBS, 10 %; Biosera, Uckfield, UK) and penicillin/streptomycin (1 %). Cells were counted in a Neubauer Improved Haemocytometer. HepG2 or HaCaT cells were seeded 24 h prior to treatment in 96‐well plates (2×10^4 cells per well in 100 μL). After 24 h, cells were incubated in triplicate with a dilution series of compound (2–100 μM from 5 mM stock solutions in DMSO) in the medium (50 μL) for 1 h. An aliquot (40 μL) was removed from each well, before the addition of medium (90 μL) followed by incubation for 24 h (37 °C, 5 % CO2). Then, alamarBlue (10 μL) was added to each well before incubation (2 h for Hep G2, 1 h for HaCaT) prior to assessing cell viability in a fluorescent plate reader (Biotek, Winooski, VT; λ ex=560 nm, λ em=600 nm). All data were measured in triplicate on a minimum of two occasions.
(§9) Toxicity was determined using an alamarBlue® cytotoxicity assay.

HaCaT = test: alamarBlue cytotoxicity assay, HaCaT keratinocytes
Protocol: as §8, §9

[4] = system: C. albicans monospecies biofilm; test: PMA-qPCR viable cell number, C. albicans monospecies biofilm; type: cell-based, Candida albicans; conditions: peptoid 100 μM, 24 h; n=3
Protocol: as §2
as §4, with “sealed. Biofilm detachment was achieved by sonication for 5 min in an ultrasonic bath (Dawe, Hayes, Middlesex, UK). The remaining cells were then collected in BHI (80 μL).” for “sealed.”
(§7) Generation of standard curves for PMA‐qPCR: For quantification of C. albicans, S. aureus and E. coli in single‐species and polymicrobial biofilms, DNA standards were prepared by extraction of DNA from planktonic organisms with the microLYSIS‐Plus kit and purification with a DNeasy kit (Qiagen). DNA standards (10^1–10^6 cells) were used in PMA‐qPCR assays to generate standard curves from which the numbers of living organisms within the biofilms could be determined.

[5] = system: C. albicans in polymicrobial biofilm with S. aureus; test: PMA-qPCR, C. albicans within C. albicans-S. aureus polymicrobial biofilm; type: cell-based, Candida albicans
Protocol: as §6
as §4, with “sealed. Biofilm detachment was achieved by sonication for 5 min in an ultrasonic bath (Dawe, Hayes, Middlesex, UK). The remaining cells were then collected in BHI (80 μL).” for “sealed.”
as §7

[6] = system: E. coli (ATCC 29522) biofilm; test: Crystal violet assay, E. coli monospecies biofilm; type: cell-based, Escherichia coli; conditions: peptoid 100 μM, 24 h treatment of 4 h biofilm; n=3
Protocol: as §1, §2, §3

[7] = system: S. aureus (NCTC 6571) biofilm; test: Crystal violet assay, S. aureus monospecies biofilm; type: cell-based, Staphylococcus aureus; conditions: peptoid 100 μM, 24 h treatment of 4 h biofilm; n=3
Protocol: as §1, §2, §3

[8] = system: E. coli monospecies biofilm; test: PMA-qPCR viable cell number, E. coli monospecies biofilm; type: cell-based, Escherichia coli; conditions: peptoid 100 μM, 24 h; n=3
Protocol: as §2
as §4, with “sealed. Biofilm detachment was achieved by sonication for 5 min in an ultrasonic bath (Dawe, Hayes, Middlesex, UK). The remaining cells were then collected in BHI (80 μL).” for “sealed.”
as §7

[9] = system: E. coli in polymicrobial biofilm with C. albicans; test: PMA-qPCR, E. coli within C. albicans-E. coli polymicrobial biofilm; type: cell-based, Escherichia coli
Protocol: as §6, §4, §5

[10] = system: S. aureus in polymicrobial biofilm with C. albicans; test: PMA-qPCR, S. aureus within C. albicans-S. aureus polymicrobial biofilm; type: cell-based, Staphylococcus aureus; conditions: PMA-qPCR
Protocol: as §6
Biofilm quantification by PMA‐modified qPCR: In order to determine the bactericidal and fungicidal activity of peptoids against single‐species and polymicrobial biofilms, the biofilms were detached from the microtitre plate wells prior to quantification. The wells were washed as above, then BHI broth (100 μL) was added and the plate was sealed. Biofilm detachment was achieved by sonication for 5 min in an ultrasonic bath (Dawe, Hayes, Middlesex, UK). The remaining cells were then collected in BHI (80 μL). PMA (20 μL, 2 mM in broth;47 Biotium, Fremont, CA) was added to the biofilm suspensions […] and incubated (37 °C, 5 min) prior to photoactivation with a broad‐spectrum LED flood light (60 LED, 0.1 W) placed 15 cm from the tubes (mixed by inversion during the 20 min photoactivation step).48 DNA was extracted by using a microLYSIS‐Plus kit (Microzone, Haywards Heath, UK), and qPCR was performed in a Mx3005P qPCR System (Agilent Technologies).49, 50, 51 See the Tables in the Supporting Information.
as §7

[11] = alamarBlue viability, 2-100 μM from DMSO stock, 1 h with compound then 24 h incubation at 37 °C, fluorescence, triplicate on a minimum of two occasions

Substance: (NahNspeNspe)3 [Peptoid 17]
- Efficacy against C. albicans monospecies biofilm (biomass, crystal violet) [1]: amongst the most efficacious
- Reduction in viable cell number, S. aureus monospecies biofilm (PMA-qPCR) [2]: approximately two orders of magnitude
- Reduction in C. albicans cell number in mixed biofilm with E. coli (PMA-qPCR) ([3]; peptoid 100 μM, 24 h, n=3): the most active
- Reduction in C. albicans cell numbers in cross-kingdom biofilm with E. coli, concentration series ([3]; peptoid 10-100 μM, PMA-qPCR): the greatest reduction in cell numbers
- ED50 HepG2 (HepG2; [11]): > 100 µM
- Toxicity to HepG2 cells (in words) (HepG2; alamarBlue, up to 100 μM): negligible toxicity
- ED50 HaCaT (HaCaT; [11]): > 100 µM
- Toxicity to HaCaT cells (in words) (HaCaT; alamarBlue, up to 100 μM): negligible toxicity
- Reduction in viable cell number, C. albicans monospecies biofilm (PMA-qPCR) [4]: still caused a significant reduction in the fungal biofilm
- Reduction in C. albicans cell number in mixed biofilm with S. aureus (PMA-qPCR) ([5]; peptoid 100 μM, 24 h, n=3): less susceptible
- Reduction in C. albicans cell numbers in cross-kingdom biofilm with S. aureus, concentration series ([5]; peptoid 10-100 μM, PMA-qPCR): the greatest reduction in cell numbers
- Efficacy against E. coli monospecies biofilm (biomass, crystal violet) [6]: amongst the most efficacious
- Efficacy against S. aureus monospecies biofilm (biomass, crystal violet) [7]: amongst the most efficacious
- Reduction in viable cell number, E. coli monospecies biofilm (PMA-qPCR) [8]: the most effective
- Reduction in E. coli cell number in mixed biofilm with C. albicans (PMA-qPCR) ([9]; peptoid 100 μM, 24 h, n=3): the most active
- Reduction in E. coli cell numbers in cross-kingdom biofilm, concentration series ([9]; peptoid 10-100 μM, PMA-qPCR): the greatest reduction in cell numbers
- Reduction of cell numbers of S. aureus in mixed-species biofilm ([10]; peptoid 10 μM, 24 h): ~100%
- Reduction in S. aureus cell numbers in cross-kingdom biofilm, concentration series ([10]; peptoid 10-100 μM): the greatest reduction in cell numbers

— PMC6680226, “Peptoid Efficacy against Polymicrobial Biofilms Determined by Using Propidium Monoazide‐Modified Quantitative PCR” (Chembiochem, 2016)
